Source: patent EP0435946B1, “METHODS FOR MODIFYING THE BINDING OF CELL ADHESION RECEPTORS” (LA JOLLA CANCER RESEARCH FOUNDATION, priority 1988, dated 1990)
Each block holds one compound with its values, some of them ahead of it.

Key:
fibronectin receptor [1] = biological target: T1, fibronectin receptor (Homo sapiens, UniProt P05556+P08648); experiment: Attachment of fibronectin receptor liposomes to fibronectin-coated wells in the presence of cations; type: binding; parameters: from tissue; host or cells: human placenta; settings: for fibronectin receptor liposome attachment, result in words: compared with Ca²⁺, Ca²⁺ and Mg²⁺, or absence of Ca²⁺ or Mg²⁺; for % Attachment: cations 1 mM, percentage of control attachment in 1 mM CaCl₂ and 1 mM MgCl₂, mean and standard error, three experiments
From the text: The effect of cations on the binding of the fibronectin receptor to its ligand was studied by incorporating the receptor into liposomes and measuring receptor liposome attachment to a fibronectin-coated surface in the presence of various cations.
(§1) Fibronectin receptors were purified from human placenta by affinity chromatography on a 110 kDa chymotryptic fragment of fibronectin, according to the methods of Pytela et al., Cell 40:191 (1985), and Pytela et al., Meth. Enzymol. 144:475-489 (1987), with the following modifications. The 110 kDa fragment corresponds to the 120 kDa fragment described in Pytela et al. (1985), supra. […] Briefly, homogenized placental tissue was washed once with 2 volumes of cold TBS containing 1 mM CaCl₂, 1 mM MgCl₂ and 3 mM phenylmethyl sulfonyl fluoride (PMSF), centrifuged, and the pellet was extracted with 1 volume of cold TBS containing 100 mM octyl-β-D-glucopyranoside (Calbiochem, La Jolla, CA), and calcium, magnesium, and PMSF as in Pytela et al., (1985) supra. The clear extract was slowly applied at 4°C, first to a column of plain Sepharose, and then to 110 kDa fibronectin fragment-Sepharose. […] Bound receptor was eluted with the wash buffer containing 20 mM EDTA in place of calcium and magnesium. Eluted receptor was used immediately for the preparation of receptor liposomes or stored frozen. In some experiments, 1 mM MnCl₂ was substituted for CaCl₂ and MgCl₂ throughout the isolation procedure.
Aliquots of the receptor liposome preparation were mixed with the indicated cations (1 mM) and the attachment of the liposomes to microtiter wells coated with fibronectin was assayed. The results are expressed as a percentage of control attachment, which was measured in the presence of 1 mM CaCl₂ and 1 mM MgCl₂. Mean and standard error from three experiments are shown.

[2] = biological target: T2, Fibronectin receptor (FNR) (Homo sapiens, UniProt P05556+P08648); experiment: Inhibition by Gd3+ of fibronectin receptor liposome attachment; type: binding; settings: for % Inhibition FNR: 1 mM CaCl₂ and 1 mM MgCl₂
T2 construct: from tissue; host or cells: human placenta
Method: (§2) The ability of Gd³⁺ to inhibit the binding of integrins was assayed in the liposome attachment system. Fibronectin receptor (FNR) and vitronectin receptor (VNR) liposomes were prepared by dialysis against TBS containing 1 mM CaCl₂ and 1 mM MgCl₂. Aliquots of GdCl₃ were added to the liposomes at the start of the assay. […] Such situations include binding of inflammatory cells at the site of a tissue injury caused by, for example, an ischemic episode, such as is associated with a cardiac or brain infarct.

[3] = biological target: T3, vitronectin receptor (VNR) (Homo sapiens, UniProt P05106+P06756); experiment: Inhibition by Gd3+ of vitronectin receptor liposome attachment; type: binding; settings: for % Inhibition VNR: 1 mM CaCl₂ and 1 mM MgCl₂
T3 construct: Vitronectin receptor was purified from human placenta; from tissue; host or cells: human placenta
Method: as §2

Vitronectin receptor = biological target: T4, Vitronectin receptor (Homo sapiens, UniProt P05106+P06756); experiment: Vitronectin receptor liposome attachment to vitronectin; type: binding; settings: a number of liposome attachment assays
T4 construct: Vitronectin receptor was purified from human placenta; from tissue; host or cells: human placenta
Method: Vitronectin receptor was purified from human placenta as described in Example I for the fibronectin receptor, but a different affinity matrix containing the peptide Gly-Arg-Gly-Asp-Ser-Pro-Lys was employed. The peptide was synthesized with an Applied Biosystems Model 430A, according to the manufacturer's instructions. Vitronectin receptor was isolated according to the method of Example I in the presence of 1 mM Ca²⁺ and 1mM Mg²⁺ or in 1 mM Ca²⁺ alone. In a number of liposome attachment assays, Mn²⁺ enhanced the binding of this integrin to vitronectin by 20-50% over the binding measured in Ca²⁺ and Mg²⁺.

Type I collagen receptor = Type I collagen receptor liposome binding to collagen; parameters: species or system human
From the text: Type I collagen receptor was also isolated from placenta, employing the method given in Example I with the following modifications. Mn²⁺ was used in the chromatography buffers for this procedure, and the affinity matrix contained Type I collagen.

A375M cells [4] = experiment: In vitro wound model of cell migration on ligand-coated cell-free lanes; type: cell-based, human; settings: 100 µM MnCl₂ in media with Ca²⁺ and Mg²⁺; spaces coated with fibronectin and Type IV collagen; versus controls
Method: An in vitro wounding assay was developed to test the effects of Mn²⁺ on cell migration into a wounded (cell free) area that was coated with various adhesion proteins. This assay allowed the determination of the specific ligands and the respective receptors that are involved in the migration process. More specifically, this assay was used to test cell migration on various substrates in the presence of Mn²⁺. A375M cells were grown to confluency in 6 well culture dishes (Corning, New York, NY). A specially designed comb which scratches out 4-2mm wide lanes was used to make a crossing pattern in the cell layer, removing the cells. The cell-free lanes were then coated for 1 hour at 37°C with one of the following ligands: fibronectin, vitronectin, Type I or Type IV collagen, bovine serum albumin or laminin. These proteins were dissolved in PBS at a concentration of 10µg/ml and then added directly to the wounded cell layer.
Standard Culture Media containing Ca²⁺ and Mg²⁺ and 100 µM MnCl₂ was added to the culture dishes while control dishes had the same media without Mn²⁺. Cell migration was monitored by visualization.

fibronectin receptor [5] = biological target: T1, fibronectin receptor; settings: Mn²⁺ versus Ca²⁺/Mg²⁺
A375M cells [6] = system: A375M cells
fibronectin receptor [7] = biological target: T1, fibronectin receptor; experiment: Yield of fibronectin receptor from affinity chromatography on 110 kDa fibronectin fragment, densitometry of SDS-PAGE; parameters: from tissue; host or cells: human placenta
Method: as §1
Fibronectin receptor can be isolated by affinity chromatography on the 110 kDa fibronectin fragment (See Pytela, et al., (1985), (1987), supra). […]

fibronectin receptor [8] = biological target: T1, fibronectin receptor; experiment: Attachment of fibronectin receptor liposomes to fibronectin-coated wells in the presence of cations; type: binding; parameters: from tissue; host or cells: human placenta; settings: for binding of fibronectin receptor liposomes to fibronectin, multiple of binding measured in Ca²⁺ alone: in 1mM Ca²⁺; for binding of fibronectin receptor liposomes to fibronectin, multiple of binding measured in Ca²⁺ alone / binding of fibronectin receptor liposomes to fibronectin, multiple of binding measured in Mg²⁺ alone: mean and standard error, two experiments; for binding of fibronectin receptor liposomes to fibronectin, multiple of binding measured in Mg²⁺ alone: in 1mM Mg²⁺

T3 sequence (P06756 31-889 limits assumed): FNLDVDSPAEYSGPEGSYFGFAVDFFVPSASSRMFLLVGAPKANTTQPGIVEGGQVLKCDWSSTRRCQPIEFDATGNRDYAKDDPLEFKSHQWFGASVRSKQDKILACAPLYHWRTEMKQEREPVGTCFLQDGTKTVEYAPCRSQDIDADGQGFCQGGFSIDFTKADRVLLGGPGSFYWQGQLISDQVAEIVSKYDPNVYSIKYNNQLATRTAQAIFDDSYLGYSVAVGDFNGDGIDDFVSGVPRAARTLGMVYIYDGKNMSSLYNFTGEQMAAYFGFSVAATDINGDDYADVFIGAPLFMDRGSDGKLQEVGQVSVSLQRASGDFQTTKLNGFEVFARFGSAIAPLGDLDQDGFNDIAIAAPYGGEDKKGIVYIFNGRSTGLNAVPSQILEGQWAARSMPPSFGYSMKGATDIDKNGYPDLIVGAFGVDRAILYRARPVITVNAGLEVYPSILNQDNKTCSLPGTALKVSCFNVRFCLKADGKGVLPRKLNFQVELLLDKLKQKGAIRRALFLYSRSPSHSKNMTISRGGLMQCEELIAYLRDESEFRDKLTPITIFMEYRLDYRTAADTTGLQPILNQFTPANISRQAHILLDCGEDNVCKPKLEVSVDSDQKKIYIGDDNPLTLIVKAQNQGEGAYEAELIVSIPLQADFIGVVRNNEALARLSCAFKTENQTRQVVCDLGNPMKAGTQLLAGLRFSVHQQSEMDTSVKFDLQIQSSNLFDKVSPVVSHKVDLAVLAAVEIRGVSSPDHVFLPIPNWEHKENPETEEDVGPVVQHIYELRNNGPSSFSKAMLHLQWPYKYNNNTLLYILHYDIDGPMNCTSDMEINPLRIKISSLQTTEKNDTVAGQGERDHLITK
T3 sequence (P06756 891-1048 partner limits assumed): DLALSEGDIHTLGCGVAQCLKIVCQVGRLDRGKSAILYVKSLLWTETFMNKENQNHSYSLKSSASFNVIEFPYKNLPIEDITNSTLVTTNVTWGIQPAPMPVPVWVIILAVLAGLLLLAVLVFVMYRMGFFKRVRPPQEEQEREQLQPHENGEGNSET
T3 sequence (P05106 27-788): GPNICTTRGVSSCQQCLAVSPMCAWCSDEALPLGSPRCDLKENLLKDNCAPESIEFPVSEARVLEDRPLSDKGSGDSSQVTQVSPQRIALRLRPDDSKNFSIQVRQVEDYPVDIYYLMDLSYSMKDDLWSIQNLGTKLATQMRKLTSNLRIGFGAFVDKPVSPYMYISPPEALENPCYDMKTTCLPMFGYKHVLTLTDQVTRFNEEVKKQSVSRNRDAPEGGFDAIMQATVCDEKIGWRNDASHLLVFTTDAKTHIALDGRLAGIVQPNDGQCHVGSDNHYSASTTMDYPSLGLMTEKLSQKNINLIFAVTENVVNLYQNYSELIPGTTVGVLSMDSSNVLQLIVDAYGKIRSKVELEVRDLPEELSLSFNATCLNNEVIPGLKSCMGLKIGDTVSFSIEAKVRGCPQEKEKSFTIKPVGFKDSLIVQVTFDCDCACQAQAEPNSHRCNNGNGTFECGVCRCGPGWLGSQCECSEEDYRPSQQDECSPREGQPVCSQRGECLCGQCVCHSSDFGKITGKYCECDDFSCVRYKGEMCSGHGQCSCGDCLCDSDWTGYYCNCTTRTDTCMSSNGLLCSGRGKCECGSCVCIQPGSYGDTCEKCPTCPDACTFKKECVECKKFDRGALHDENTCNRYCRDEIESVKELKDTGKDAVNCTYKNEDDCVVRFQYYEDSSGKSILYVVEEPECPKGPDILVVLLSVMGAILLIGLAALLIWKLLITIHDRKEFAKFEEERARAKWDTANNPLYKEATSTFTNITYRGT
T1 sequence (P08648 42-894 limits assumed): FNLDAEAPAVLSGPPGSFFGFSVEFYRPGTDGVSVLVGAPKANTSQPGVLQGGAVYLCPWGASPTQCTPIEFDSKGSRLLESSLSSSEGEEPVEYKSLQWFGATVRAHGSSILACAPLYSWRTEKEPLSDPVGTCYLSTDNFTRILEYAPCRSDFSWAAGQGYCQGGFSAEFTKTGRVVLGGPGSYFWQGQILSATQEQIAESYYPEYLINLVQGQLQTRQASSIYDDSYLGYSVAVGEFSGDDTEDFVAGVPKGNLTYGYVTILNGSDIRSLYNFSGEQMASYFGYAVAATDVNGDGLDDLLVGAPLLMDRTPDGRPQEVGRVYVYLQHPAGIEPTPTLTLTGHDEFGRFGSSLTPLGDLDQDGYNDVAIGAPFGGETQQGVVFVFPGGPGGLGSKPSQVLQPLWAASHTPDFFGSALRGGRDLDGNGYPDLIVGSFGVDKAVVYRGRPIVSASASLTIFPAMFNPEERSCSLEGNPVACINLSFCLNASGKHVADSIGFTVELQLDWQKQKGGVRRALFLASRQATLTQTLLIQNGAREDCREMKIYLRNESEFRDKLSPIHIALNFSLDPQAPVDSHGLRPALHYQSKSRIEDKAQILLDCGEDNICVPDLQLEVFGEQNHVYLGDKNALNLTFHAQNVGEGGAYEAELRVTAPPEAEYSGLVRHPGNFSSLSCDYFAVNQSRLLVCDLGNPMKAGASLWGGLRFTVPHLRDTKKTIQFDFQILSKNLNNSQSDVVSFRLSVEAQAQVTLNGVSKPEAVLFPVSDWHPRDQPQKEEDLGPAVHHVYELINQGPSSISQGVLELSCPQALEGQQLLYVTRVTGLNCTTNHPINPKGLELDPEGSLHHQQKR
T1 sequence (P08648 895-1049 partner limits assumed): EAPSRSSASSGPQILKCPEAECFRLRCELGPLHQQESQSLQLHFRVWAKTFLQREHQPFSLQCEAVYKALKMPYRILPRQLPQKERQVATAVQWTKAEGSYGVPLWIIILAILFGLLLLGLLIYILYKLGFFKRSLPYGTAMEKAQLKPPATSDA
T1 sequence (P05556 21-798): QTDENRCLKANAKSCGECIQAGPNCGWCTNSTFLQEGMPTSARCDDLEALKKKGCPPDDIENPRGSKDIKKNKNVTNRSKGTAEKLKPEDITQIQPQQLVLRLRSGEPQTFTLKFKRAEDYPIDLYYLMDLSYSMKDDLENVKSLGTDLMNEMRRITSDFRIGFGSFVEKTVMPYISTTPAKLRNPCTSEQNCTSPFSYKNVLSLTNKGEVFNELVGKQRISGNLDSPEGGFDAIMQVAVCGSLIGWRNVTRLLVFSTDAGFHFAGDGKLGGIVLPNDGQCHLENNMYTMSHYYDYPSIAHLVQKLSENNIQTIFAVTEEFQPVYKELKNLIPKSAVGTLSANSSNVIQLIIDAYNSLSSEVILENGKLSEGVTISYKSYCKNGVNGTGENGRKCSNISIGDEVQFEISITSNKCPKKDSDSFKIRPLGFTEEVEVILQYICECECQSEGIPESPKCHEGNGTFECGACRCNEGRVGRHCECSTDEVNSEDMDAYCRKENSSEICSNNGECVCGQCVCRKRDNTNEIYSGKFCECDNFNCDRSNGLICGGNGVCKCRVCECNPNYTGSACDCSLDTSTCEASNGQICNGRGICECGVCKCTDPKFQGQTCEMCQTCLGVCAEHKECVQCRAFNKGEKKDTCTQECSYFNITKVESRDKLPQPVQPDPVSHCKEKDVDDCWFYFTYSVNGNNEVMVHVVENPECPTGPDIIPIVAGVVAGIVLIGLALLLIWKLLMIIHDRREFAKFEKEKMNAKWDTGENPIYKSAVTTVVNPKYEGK
T2 sequence (P08648 42-894 limits assumed): as the sequence (P08648 42-894 limits assumed) above
T2 sequence (P08648 895-1049 partner limits assumed): as the sequence (P08648 895-1049 partner limits assumed) above
T2 sequence (P05556 21-798): as the sequence (P05556 21-798) above
T4 sequence (P06756 31-889 limits assumed): as the sequence (P06756 31-889 limits assumed) above
T4 sequence (P06756 891-1048 partner limits assumed): as the sequence (P06756 891-1048 partner limits assumed) above
T4 sequence (P05106 27-788): as the sequence (P05106 27-788) above

SMILES: [Ba+2] [Ba²⁺]
fibronectin receptor liposome attachment, result in words (fibronectin receptor [1]): produced less attachment than Ca²⁺, but did support fibronectin receptor attachment above the level found in the absence of either Ca²⁺ or Mg²⁺

SMILES: [Be+2] [Be²⁺]
fibronectin receptor liposome attachment, result in words (fibronectin receptor [1]): produced less attachment than Ca²⁺, but did support fibronectin receptor attachment above the level found in the absence of either Ca²⁺ or Mg²⁺

% Attachment (fibronectin receptor [1]): 75 ± 10%
SMILES: [Ca+2].[Cl-].[Cl-] [Ca²⁺, CaCl₂, reference compound]

SMILES: [Cd+2] [Cd²⁺]
% Attachment (fibronectin receptor [1]): 130 ± 30% | fibronectin receptor liposome attachment, result in words (fibronectin receptor [1]): increased the percentage of attachment above that obtained in the presence of Ca²⁺ and Mg²⁺

SMILES: [Co+2] [Co²⁺]
% Attachment (fibronectin receptor [1]): 150 ± 13% | fibronectin receptor liposome attachment, result in words (fibronectin receptor [1]): increased the percentage of attachment above that obtained in the presence of Ca²⁺ and Mg²⁺

SMILES: [Cu+2] [Cu²⁺]
fibronectin receptor liposome attachment, result in words (fibronectin receptor [1]): produced increased attachment above that found in the absence of Ca²⁺ or Mg²⁺ in at least one experiment

SMILES: [Fe+2] [Fe²⁺]
fibronectin receptor liposome attachment, result in words (fibronectin receptor [1]): produced less attachment than Ca²⁺, but did support fibronectin receptor attachment above the level found in the absence of either Ca²⁺ or Mg²⁺

% Inhibition FNR ([2]; Gd³⁺ 0.1 mM): 8% | % Inhibition FNR ([2]; Gd³⁺ 0.3 mM): 61% | % Inhibition FNR ([2]; Gd³⁺ 1 mM): 91% | % Inhibition FNR ([2]; Gd³⁺ 3 mM): 87% | attachment of fibronectin receptor to its ligand, result in words ([2]; concentrations above 0.3 mM): significant decrease in attachment | % Inhibition VNR ([3]; Gd³⁺ 0.1 mM): 0% | % Inhibition VNR ([3]; Gd³⁺ 0.3 mM): 59% | % Inhibition VNR ([3]; Gd³⁺ 1 mM): 93% | % Inhibition VNR ([3]; Gd³⁺ 3 mM): 100% | attachment of vitronectin receptor to its ligand, result in words ([3]; concentrations above 0.3 mM): significant decrease in attachment
SMILES: [Cl][Gd]([Cl])[Cl] [Gd³⁺, GdCl₃]
fibronectin receptor liposome attachment, result in words (fibronectin receptor [1]): produced increased attachment above that found in the absence of Ca²⁺ or Mg²⁺ in at least one experiment

SMILES: [La+3] [La³⁺]
fibronectin receptor liposome attachment, result in words (fibronectin receptor [1]): produced increased attachment above that found in the absence of Ca²⁺ or Mg²⁺ in at least one experiment

% Attachment (fibronectin receptor [1]): 110 ± 5%
SMILES: [Cl-].[Cl-].[Mg+2] [Mg²⁺, MgCl₂, reference compound]

SMILES: [Cl][Mn][Cl] [Mn²⁺, MnCl₂]
enhancement of binding to vitronectin over the binding measured in Ca²⁺ and Mg²⁺ (Vitronectin receptor): 20-50% | binding of Type I collagen receptor liposomes to collagen, result in words (Type I collagen receptor): clear and specific binding to collagen | migration into cell-free spaces, result in words (A375M cells [4]): augmented migration | factor of increase of the relative affinity of the receptor for the fragment (fibronectin receptor [5]; ligand 110 kDa fibronectin fragment): 4.5 | factor of increase of the relative receptor affinity for the peptide (fibronectin receptor [5]; ligand GRGDSP): 50 | increase in invasion / migration of cells (A375M cells [6]; 100 µM MnCl₂, after 72 hours): 30% | effect on cell viability and migration (A375M cells [6]; concentrations higher than 100 µM): cell viability is affected and therefore migration is reduced | % Attachment (fibronectin receptor [1]): 210 ± 29% | binding of receptor isolated with Mn²⁺ in the liposome attachment assay, Mn²⁺ versus Ca²⁺/Mg²⁺ (fibronectin receptor [1]; receptor isolated with Mn²⁺): several times higher | yield of receptor with Mn²⁺ relative to Ca²⁺ and Mg²⁺ (fibronectin receptor [7]; 1 mM Mn²⁺ substituted for Ca²⁺/Mg²⁺, estimated by densitometry): four-fold higher | Receptor Peak Area (fibronectin receptor [7]; cations 1 mM in chromatography buffers, Coomassie blue gels scanned): 18.2 | binding of fibronectin receptor liposomes to fibronectin, multiple of binding measured in Ca²⁺ alone (fibronectin receptor [8]; 0.01 mM Mn²⁺ added): 1.23 ± 0.66 | binding of fibronectin receptor liposomes to fibronectin, multiple of binding measured in Mg²⁺ alone (fibronectin receptor [8]; 0.01 mM Mn²⁺ added): 0.97 ± 0.17 | binding of fibronectin receptor liposomes to fibronectin, multiple of binding measured in Ca²⁺ alone (fibronectin receptor [8]; 0.1mM Mn²⁺ added): 4.41 ± 0.33 | binding of fibronectin receptor liposomes to fibronectin, multiple of binding measured in Mg²⁺ alone (fibronectin receptor [8]; 0.1mM Mn²⁺ added): 2.04 ± 0.08 | binding of fibronectin receptor liposomes to fibronectin, multiple of binding measured in Ca²⁺ alone (fibronectin receptor [8]; 1 mM Mn²⁺ added): 5.78 ± 0.47 | binding of fibronectin receptor liposomes to fibronectin, multiple of binding measured in Mg²⁺ alone (fibronectin receptor [8]; 1 mM Mn²⁺ added): 3.12 ± 0.10 | concentration at which liposome attachment was promoted (as low as) (fibronectin receptor [8]; cation titration, Figure 1): 3 µM

SMILES: [Ni+2] [Ni²⁺]
% Attachment (fibronectin receptor [1]): 100 ± 12% | fibronectin receptor liposome attachment, result in words (fibronectin receptor [1]): as effective as the combination of Ca²⁺ and Mg²⁺

SMILES: [Sr+2] [Sr²⁺]
fibronectin receptor liposome attachment, result in words (fibronectin receptor [1]): produced increased attachment above that found in the absence of Ca²⁺ or Mg²⁺ in at least one experiment

attachment, % of the control value (fibronectin receptor [1]; one similar assay): 128%
SMILES: [Zn+2] [Zn²⁺]
